Key:
[1] = experimental, from the literature; cited from earlier work
[2] = Corticosterone solubility in enhancer-PBS solution relative to PBS; conditions: enhancer concentration of Protocol I, 37°C
[3] = system: human epidermal membrane (HEM); test: Passive transport of corticosterone; type: in vitro ADME; conditions: CS lipoidal pathway permeability vs PBS control (Eq. 3)
[4] = system: human epidermal membrane (HEM); test: Evaluation of direct enhancer treatment time on CS permeability of HEM; type: in vitro ADME; conditions: direct treatment 1, 4, 20 min; p > 0.05, t-test
[5] = system: human epidermal membrane (HEM); test: Enhancer depletion and recovery of HEM barrier; type: in vitro ADME; conditions: Protocol II, enhancer depletion in PBS

| Compound | effect of treatment time on permeability coefficients of CS [4] | time for HEM permeability to return to the PBS control value [5] | Enhancement Ratio (Emax) ([3]; Protocol III) | Enhancement Ratio (Emax) ([3]; Protocol II) | further results |
| --- | --- | --- | --- | --- | --- |
| COc1ccc(O)c(C(C)(C)C)c1 [BHA, 1,1-Dimethylethyl-4-methoxy phenol] | – | – | – | – | log Koct [1]: 3.14 ^b^53; CS Solubility Ratio (enhancer/PBS solution vs PBS) [2]: 1.16 ± 0.03 |
| CCCCCCCCCCCCN1CCCC1=O [DoP, 1-Dodecyl-2-pyrrolidinone] | – | – | 14 ± 6 | – | – |
| CCCCC(CC)COC(=O)c1ccccc1O (centres unmarked) [OS, 2-Ethylhexyl 2-hydroxybenzoate] | did not significantly affect | – | – | 5.0 ± 3.6 | – |
| CCCCC(CC)COC(=O)c1ccc(N(C)C)cc1 (centres unmarked) [PADO, 2-Ethylhexyl 4-(dimethylamino) benzoate] | did not significantly affect | – | 3.8 ± 1.1 | 4.1 ± 0.7 | – |
| OCCOc1ccccc1 [PHE, 2-Phenoxy-1-ethanol] | – | less than 2 h | – | – | – |

Second part, led by results:

| effect of treatment time on permeability coefficients of CS [4] | time for HEM permeability to return to the PBS control value [5] | Compound | Enhancement Ratio (Emax) ([3]; Protocol III) | Enhancement Ratio (Emax) ([3]; Protocol II) | further results |
| --- | --- | --- | --- | --- | --- |
| did not significantly affect | – | CCCCCCCCCCCCCC(=O)OC(C)C [IPM, Propan-2-yl tetradecanoate] | 3.3 ± 1.1 | 2.8 ± 0.2 | – |
| did not significantly affect | – | CCCCCCCC/C=C\CCCCCCCCO [OA, (Z)-Octadec-9-en-1-ol] | – | 5.5 ± 1.5 | – |
| – | approximately 6 h | CCCCCCCCO [OC, 1-Octanol] | 18 ± 2 | – | – |
| – | approximately 6 h | CCCCCCCCN1CCCC1=O [OP, 1-Octyl-2-pyrrolidinone] | 16 ± 6 | – | – |
| did not significantly affect | – | CCCCCCCCCCCO [UD, Undecan-1-ol] | – | 17 ± 2 | – |
